The text below walks through data of PMC5666153, “Klebsiella pneumoniae Carbapenemase-2 (KPC-2), Substitutions at Ambler Position Asp179, and Resistance to Ceftazidime-Avibactam: Unique Antibiotic-Resistant Phenotypes Emerge from β-Lactamase Protein Engineering” (mBio, 2017).

Assay in all cases: microbe, parasite or virus in culture
In one assay the test system is T1, E. coli DH10B pBC SK.
T1 construct: DH10B carries empty vector pBC SK
Also on record: species or system bacterial strain of the line; Mueller-Hinton agar-dilution MIC, CLSI; concentration at which bacterial growth was no longer observed. The following applies: Escherichia coli, empty vector pBC SK. The protocol:
(§1) Mueller-Hinton (MH) agar-dilution MIC measurements were performed according to Clinical and Laboratory Standards Institute (CLSI) guidelines as previously described ([12], [30]). The MICs are reported as the concentrations at which bacterial growth was no longer observed. Avibactam was tested at a constant 4 µg/ml in combination with its respective antibiotic partners. All MIC measurements were performed at least three times. The impact of site-saturation mutagenesis at Ambler position 179 of KPC-2 on antibiotic resistance was next assessed using whole-cell viability assays. Twenty-four different β-lactam and β-lactam–β-lactamase inhibitor combinations were tested for susceptibility against KPC-2 and the 19 variants expressed in E. coli DH10B cells (Tables 1 and 2). The Klebsiella pneumoniae KPC-2-containing positive-control strain maintained resistance (as defined by Clinical and Laboratory Standards Institute [CLSI] criteria) against all the commercially available β-lactams tested (Table 1).

For another assay, the system named is T2, E. coli DH10B.
T2 construct: DH10B
Details: species or system bacterial strain of the line; Mueller-Hinton agar-dilution MIC, CLSI; concentration at which bacterial growth was no longer observed. The following applies: Escherichia coli. The protocol: as §1

For another assay, the system named is T3, K. pneumoniae KPC-2.
T3 construct: KPC-2-producing control strain, also producing TEM-1 and SHV-29
Also on record: species or system bacterial strain of the line; Mueller-Hinton agar-dilution MIC, CLSI; concentration at which bacterial growth was no longer observed. Particulars: Klebsiella pneumoniae.

Assay [1] relates to T4, blaKPC-2 179 Asp (WT) in E. coli DH10B.
T4 construct: DH10B expressing blaKPC-2 (wild type)
Details: species or system E. coli DH10B / K. pneumoniae; Mueller-Hinton agar dilution MIC, CLSI, no visible growth. The following applies: Escherichia coli. The method, then:
Mueller-Hinton (MH) agar-dilution MIC measurements were performed according to Clinical and Laboratory Standards Institute (CLSI) guidelines as previously described ([12], [30]). The MICs are reported as the concentrations at which bacterial growth was no longer observed. Avibactam was tested at a constant 4 µg/ml in combination with its respective antibiotic partners. All MIC measurements were performed at least three times.

Where [2] appears, read: BAL, read-out: MIC(s) (µg/ml) / BAL.

≈ marks a conversion by molar mass, not a printed value. Like-named read-outs stand apart in the source and are kept apart here. Bounds are passed on as bounds.

For the compound `CO/N=C(\C(=O)N[C@@H]1C(=O)N2C(C(=O)[O-])=C(C[N+]3(C)CCCC3)CS[C@H]12)c1csc(N)n1` [cefepime], the MIC in the assay with E. coli DH10B pBC SK (DH10BPBCSK, read-out: MIC(s) (µg/ml) / FEP) is at most 0.125 µg/mL; in the assay on E. coli DH10B (DH10B, read-out: MIC(s) (µg/ml) / FEP) it was at most 0.125 µg/mL; in the assay with K. pneumoniae KPC-2 (KPC2, read-out: MIC(s) (µg/ml) / FEP), 64 µg/mL (≈ 133 µM); in assay [1] (read-out: MIC(s) (µg/ml) / FEP), 0.125 µg/mL.

Take `CCO/N=C(\C(=O)N[C@@H]1C(=O)N2C(C(=O)[O-])=C(Sc3nc(-c4cc[n+](C)cc4)cs3)CS[C@H]12)c1nsc(N)n1` [TAR, ceftaroline]: the MIC with E. coli DH10B pBC SK (DH10BPBCSK, read-out: MIC(s) (µg/ml) / TAR) was under 0.06 µg/mL; in the assay on E. coli DH10B (DH10B, read-out: MIC(s) (µg/ml) / TAR), 0.06 µg/mL; in the assay with K. pneumoniae KPC-2 (KPC2, read-out: MIC(s) (µg/ml) / TAR), 512 µg/mL (≈ 847 µM); in assay [1] (read-out: MIC(s) (µg/ml) / TAR), 1 µg/mL.

Turning to `CC1(C)S[C@@H]2[C@H](NC(=O)[C@H](N)c3ccccc3)C(=O)N2[C@H]1C(=O)O` [ampicillin], the MIC is 4 µg/mL with E. coli DH10B pBC SK (DH10BPBCSK, read-out: MIC(s) (µg/ml) / AMP); 8 µg/mL in the assay with E. coli DH10B (DH10B, read-out: MIC(s) (µg/ml) / AMP); over 8190 µg/mL in the assay on K. pneumoniae KPC-2 (KPC2, read-out: MIC(s) (µg/ml) / AMP); 64 µg/mL in assay [1] (read-out: MIC(s) (µg/ml) / AMP).

Regarding `CO/N=C(\C(=O)N[C@@H]1C(=O)N2C(C(=O)O)=C(CSc3nc(=O)c(=O)[nH]n3C)CS[C@H]12)c1csc(N)n1` [CRO, ceftriaxone], the MIC in the assay with E. coli DH10B pBC SK (DH10BPBCSK, read-out: MIC(s) (µg/ml) / CRO) is at most 0.06 µg/mL; in the assay with E. coli DH10B (DH10B, read-out: MIC(s) (µg/ml) / CRO), at most 0.06 µg/mL; in assay [1] (read-out: MIC(s) (µg/ml) / CRO) it was 0.5 µg/mL.

For `CC1(C)[C@H](NC(=O)/C(=N\OCc2cc(=O)c(O)cn2O)c2csc(N)n2)C(=O)N1OS(=O)(=O)O` [BAL30072], the MIC in the assay on E. coli DH10B pBC SK (setting [2]) is at most 0.06 µg/mL; in the assay on E. coli DH10B (setting [2]), at most 0.06 µg/mL; in the assay on K. pneumoniae KPC-2 (setting [2]) it was 8 µg/mL (≈ 15.4 µM); in assay [1] (setting [2]), at most 0.06 µg/mL.

For the compound `C[C@@H](O)[C@H]1C(=O)N2C(C(=O)O)=C(S[C@@H]3CN[C@H](CNS(N)(=O)=O)C3)[C@H](C)[C@H]12` [doripenem], the MIC was at most 0.06 µg/mL with E. coli DH10B pBC SK (DH10BPBCSK, read-out: MIC(s) (µg/ml) / DOR); at most 0.06 µg/mL in the assay with E. coli DH10B (DH10B, read-out: MIC(s) (µg/ml) / DOR); 8 µg/mL (≈ 19 µM) with K. pneumoniae KPC-2 (KPC2, read-out: MIC(s) (µg/ml) / DOR); 0.125 µg/mL in assay [1] (read-out: MIC(s) (µg/ml) / DOR).

Turning to `C[C@@H](O)[C@H]1C(=O)N2C(C(=O)O)=C(SCCN=CN)C[C@H]12` [IMI, imipenem], the MIC in the assay on E. coli DH10B pBC SK (DH10BPBCSK, read-out: MIC(s) (µg/ml) / IMI) is 0.5 µg/mL; with E. coli DH10B (DH10B, read-out: MIC(s) (µg/ml) / IMI), 0.5 µg/mL; in the assay on K. pneumoniae KPC-2 (KPC2, read-out: MIC(s) (µg/ml) / IMI), 16 µg/mL (≈ 53.4 µM); in assay [1] (read-out: MIC(s) (µg/ml) / IMI) it was 1 µg/mL.

Consider `CCN1CCN(C(=O)N[C@@H](C(=O)N[C@@H]2C(=O)N3[C@@H]2SC(C)(C)[C@@H]3C(=O)O)c2ccccc2)C(=O)C1=O` [piperacillin], for which the MIC in the assay with E. coli DH10B pBC SK (DH10BPBCSK, read-out: MIC(s) (µg/ml) / PIP) amounted to 2 µg/mL; in the assay on E. coli DH10B (DH10B, read-out: MIC(s) (µg/ml) / PIP), 2 µg/mL; in the assay with K. pneumoniae KPC-2 (KPC2, read-out: MIC(s) (µg/ml) / PIP), 2050 µg/mL (≈ 3960 µM); in assay [1] (read-out: MIC(s) (µg/ml) / PIP), 8 µg/mL.

In the case of `C[C@@H](O)[C@H]1C(=O)N2C(C(=O)O)=C(S[C@@H]3CN[C@H](C(=O)N(C)C)C3)[C@H](C)[C@H]12` [meropenem], the MIC with E. coli DH10B pBC SK (DH10BPBCSK, read-out: MIC(s) (µg/ml) / MEM) was at most 0.06 µg/mL; with E. coli DH10B (DH10B, read-out: MIC(s) (µg/ml) / MEM), at most 0.06 µg/mL; with K. pneumoniae KPC-2 (KPC2, read-out: MIC(s) (µg/ml) / MEM) it was 16 µg/mL (≈ 41.7 µM); in assay [1] (read-out: MIC(s) (µg/ml) / MEM), 0.06 µg/mL.

As for `CC(=O)OCC1=C(C(=O)O)N2C(=O)[C@@H](NC(=O)Cc3cccs3)[C@H]2SC1` [cephalothin], the MIC in the assay with E. coli DH10B pBC SK (DH10BPBCSK, read-out: MIC(s) (µg/ml) / THIN) was found to be 4 µg/mL; in the assay with E. coli DH10B (DH10B, read-out: MIC(s) (µg/ml) / THIN), 4 µg/mL; in the assay with K. pneumoniae KPC-2 (KPC2, read-out: MIC(s) (µg/ml) / THIN), 2050 µg/mL (≈ 5170 µM); in assay [1] (read-out: MIC(s) (µg/ml) / THIN), 64 µg/mL.

In the case of `CO/N=C(\C(=O)N[C@@H]1C(=O)N2C(C(=O)O)=C(COC(C)=O)CS[C@H]12)c1csc(N)n1` [cefotaxime], the MIC is at most 0.06 µg/mL with E. coli DH10B pBC SK (DH10BPBCSK, read-out: MIC(s) (µg/ml) / TAX); at most 0.06 µg/mL in the assay with E. coli DH10B (DH10B, read-out: MIC(s) (µg/ml) / TAX); 64 µg/mL (≈ 141 µM) with K. pneumoniae KPC-2 (KPC2, read-out: MIC(s) (µg/ml) / TAX); 0.25 µg/mL in assay [1] (read-out: MIC(s) (µg/ml) / TAX).

Turning to `C[C@@H](O)[C@H]1C(=O)N2C(C(=O)O)=C(S[C@@H]3CN[C@H](C(=O)Nc4cccc(C(=O)O)c4)C3)[C@H](C)[C@H]12` [ertapenem], the MIC with E. coli DH10B pBC SK (DH10BPBCSK, read-out: MIC(s) (µg/ml) / ERT) was at most 0.03 µg/mL; in the assay with E. coli DH10B (DH10B, read-out: MIC(s) (µg/ml) / ERT), at most 0.03 µg/mL; in the assay with K. pneumoniae KPC-2 (KPC2, read-out: MIC(s) (µg/ml) / ERT), 32 µg/mL (≈ 67.3 µM); in assay [1] (read-out: MIC(s) (µg/ml) / ERT) it was at most 0.06 µg/mL.

For the compound `CC(C)(O/N=C(\C(=O)N[C@@H]1C(=O)N2C(C(=O)[O-])=C(C[n+]3ccccc3)CS[C@H]12)c1csc(N)n1)C(=O)O` [CAZ, ceftazidime], the MIC in the assay on E. coli DH10B pBC SK (DH10BPBCSK, read-out: MIC(s) (µg/ml) / CAZ) turned out to be 0.25 µg/mL; with E. coli DH10B (DH10B, read-out: MIC(s) (µg/ml) / CAZ), 0.25 µg/mL; with K. pneumoniae KPC-2 (KPC2, read-out: MIC(s) (µg/ml) / CAZ), 64 µg/mL (≈ 117 µM); in assay [1] (read-out: MIC(s) (µg/ml) / CAZ), 1 µg/mL.

With `C[C@H]1[C@H](NC(=O)/C(=N\OC(C)(C)C(=O)O)c2csc(N)n2)C(=O)N1S(=O)(=O)O` [AZT, aztreonam], the MIC is 0.06 µg/mL in the assay on E. coli DH10B pBC SK (DH10BPBCSK, read-out: MIC(s) (µg/ml) / AZT) and 0.06 µg/mL with E. coli DH10B (DH10B, read-out: MIC(s) (µg/ml) / AZT).
